Each structure is given as a SMILES string. Converted amounts (≈) assume the structure as drawn. Like-named read-outs stand apart in the source and are kept apart here.

Results on 13 molecules are retold here after paper PMC11598835 (Viruses, 2024).

Data set [1] can be described thus: in vitro. The data set is classed as cell-based. The note with it: human.
Data set [2] has as its target Recombinant SARS-CoV-2 Mpro (Severe acute respiratory syndrome coronavirus 2, UniProt P0DTD1). Description: Protease inhibition FRET assay, Mpro. The note with it: Mpro 1.5 μM, substrate 50 μM. The format is biochemical.
For data set [3], the target named is Recombinant SARS-CoV-2 PLpro (Severe acute respiratory syndrome coronavirus 2, UniProt P0DTD1). The experiment in a line: biochemical. The note with it: FRET, PLpro 1 μM.
The nature of data set [4]: physchem. The settings on record: water, thermodynamic from solid. The format is physicochemical.
Data set [5] is described as follows: In vivo plasma pharmacokinetics in rats. The settings on record: male, Wistar, ip, rat.
The test system of data set [6] is SARS-CoV-2 B.1 lineage isolate.
Data set [7] deals with SARS-CoV-2 B.1 lineage isolate. The experiment in a line: microbe, parasite or virus in culture. The note with it: Severe acute respiratory syndrome coronavirus 2, Calu-3, 24 h.
The conditions of data set [8]: cited from earlier work.
Data set [9] relates to SARS-CoV-2. The settings on record: read-out: EC50, anti-SARS-CoV-2; cited from earlier work.
Data set [10] relates to HIV-1. Set-up: method as in ref 15 = [15]. The note with it: read-out: EC50, antiviral activity for HIV-1; cited from earlier work.
[11] abbreviates: read-out: Inhibition of Viral Replication in Calu-3 (%).
The mark [12] stands for this setting: read-out: difference in SARS-CoV-2 inhibition compared to compound 4a.

Molecule `O=C1c2ccccc2C(=O)c2c1[nH]c1ccccc21` [4a, 5H-Benzo[b]carbazole-6,11-dione] gave a CC50 at 72 h in data set [1] of more than 200 µM. The IC50 in data set [2] stood at 0.11 ± 0.05 µM. For the same molecule, the IC50 in data set [3] amounted to 153 ± 0.1 µM. The solubility in [4] is 1.43 µg/mL (≈ 5.78 µM). The CL/F in data set [5] (plasma, 5 mg/kg i.p.) is 31.2 mL/min/kg. For the same molecule, the Vd/F in data set [5] (plasma, 5 mg/kg i.p., read-out: Vz/F) is 98 ± 186 L/kg. Also, in data set [5] (plasma, 5 mg/kg i.p., read-out: t1/2,z (converted)), the half-life was 37 ± 60 h. Moreover, in data set [5] (in vivo, 5 mg/kg), the concentration peaked (Cmax) at 770 ± 120 nM, the Tmax was 0.333 h and the concentration at 24 h worked out at 120 ± 40 nM. Further, in data set [6], the “SI (CC50/EC50)” value is more than 266.7 and the “selectivity indexes (SI), conclusions” value was more than 50 µM. Besides, the inhibition at 10 µM in data set [7] (setting [11]) was 94.6%.
In data set [1], `COc1ccc2[nH]c3c(c2c1)C(=O)c1ccccc1C3=O` [4b, 2-Methoxy-5H-benzo[b]carbazole-6,11-dione] registered a CC50 at 72 h of more than 200 µM. Further, the IC50 in data set [2] worked out at 0.37 ± 0.05 µM. For the same molecule, the IC50 in data set [3] came to 72.1 ± 0.1 µM. In data set [6], the “SI (CC50/EC50)” value is reported as more than 119.0 and the “selectivity indexes (SI), conclusions” value is more than 50 µM. Besides, the “difference in SARS-CoV-2 inhibition compared to compound 4a” value in [6] (10 µM) is given as “no significant change”. In addition, in data set [7] (setting [11]), the inhibition at 10 µM was determined as 96.2%.
For the molecule `Cc1ccc2[nH]c3c(c2c1)C(=O)c1ccccc1C3=O` [4c, 2-Methyl-5H-benzo[b]carbazole-6,11-dione], the “Inhibition of Viral Replication in Calu-3 (%)” value (“Inhibition … (%)” below) in [6] (10 µM) was “ineffective”.
`COc1cccc2c3c([nH]c12)C(=O)c1ccccc1C3=O` [4d, 4-Methoxy-5H-benzo[b]carbazole-6,11-dione] returned a CC50 at 72 h in data set [1] of more than 200 µM. The IC50 in data set [2] is more than 200 µM; in data set [3], 190.8 ± 0.1 µM. In data set [6], the “SI (CC50/EC50)” value is on record as more than 141.8. In data set [6], the “selectivity indexes (SI), conclusions” value was more than 50 µM. Also, the inhibition at 10 µM was 86.5% in [7] (setting [11]) and 8.1% in data set [7] (setting [12]).
`COc1cc(OC)c2[nH]c3c(c2c1)C(=O)c1ccccc1C3=O` [4e, 2,4-Dimethoxy-5H-benzo[b]carbazole-6,11-dione]: the inhibition at 10 µM in data set [7] (setting [11]) was determined as 47.1%; in data set [7] (setting [12]), 47.4%.
For the molecule `CCOC(=O)c1ccc2[nH]c3c(c2c1)C(=O)c1ccccc1C3=O` [4f, Ethyl 6,11-dioxo-6,11-dihydro-5H-benzo[b]carbazole-2-carboxylate], the “Inhibition … (%)” value in data set [6] (10 µM) is 64%. Also, the inhibition at 10 µM in data set [7] (setting [11]) stood at 64%.
For `O=C1c2ccccc2C(=O)c2c1[nH]c1ccc(F)cc21` [4g, 2-Fluoro-5H-benzo[b]carbazole-6,11-dione], the “Inhibition … (%)” value in [6] (10 µM) amounted to 69%. Further, the inhibition at 10 µM in data set [7] (setting [11]) was 69.4%.
In data set [1], `O=C1c2ccccc2C(=O)c2c1[nH]c1c2ccc2ccccc21` [4i, 7H-Dibenzo[a,h]carbazole-7,12(13H)-dione] yielded a CC50 at 72 h of more than 200 µM and a viability at 72 h, 100 µM of 68%. Moreover, the IC50 in data set [2] is more than 200 µM. In addition, the IC50 in data set [3] was 148.7 ± 0.6 µM. Besides, in [6], the EC50 came out at 3.73 ± 0.6 µM; the “SI (CC50/EC50)” value is on record as more than 53.7; the “selectivity indexes (SI), conclusions” value is more than 50 µM. Further, the EC50 in data set [7] is less than 4 µM. Further, the inhibition at 10 µM in data set [7] (setting [11]) is 85.9%.
On to `COC(=O)N[C@H](C(=O)N[C@@H](Cc1ccccc1)[C@@H](O)CN(Cc1ccc(-c2ccccn2)cc1)NC(=O)[C@@H](NC(=O)OC)C(C)(C)C)C(C)(C)C` [Atazanavir], for which the “free fraction, experimental data” value in data set [8] is recorded as 14%.
`CC(C)C(=O)OC[C@H]1O[C@@H](n2ccc(NO)nc2=O)[C@H](O)[C@@H]1O` [Molnupiravir]: the EC50 in data set [9] was 1.96 µM.
As to `CC(C)(C)[C@H](NC(=O)C(F)(F)F)C(=O)N1C[C@H]2[C@@H]([C@H]1C(=O)N[C@H](C#N)C[C@@H]1CCNC1=O)C2(C)C` [Nirmatrelvir], the EC50 in [9] is 0.1 µM.
With `COc1cc2[nH]c3ccccc3c2cc1C=O` [O-Methylmukonal], the EC50 in data set [10] was 12 µM.
On to `CCC(CC)COC(=O)[C@H](C)N[P@](=O)(OC[C@H]1O[C@@](C#N)(c2ccc3c(N)ncnn23)[C@H](O)[C@@H]1O)Oc1ccccc1` [Remdesivir], for which the EC50 in [9] is 2.49 µM.
